Experimental findings from patent publication US20030225007A1, “Sulfonamide derivatives of 3-substituted imidazol[1,2-d]-1,2,4-thiadiazoles and 3-substituted-[1,2,4] thiadiazolo[4,5-a] benzimidazole as inhibitors of fibrin cross-linking and transglutaminases” (Apotex Inc., priority 2002, published 2003) are described below.

By IC50 is commonly meant the point on the concentration scale where inhibition reaches its midpoint.

Like-named read-outs stand apart in the source and are kept apart here.

Experiment [1] has as its target T1, Factor XIIIa (activated FXIII) (Homo sapiens, UniProt P00488).
T1 construct: purchased Enzyme Research Laboratories, Ltd
T1 sequence (P00488 39-732 limits assumed): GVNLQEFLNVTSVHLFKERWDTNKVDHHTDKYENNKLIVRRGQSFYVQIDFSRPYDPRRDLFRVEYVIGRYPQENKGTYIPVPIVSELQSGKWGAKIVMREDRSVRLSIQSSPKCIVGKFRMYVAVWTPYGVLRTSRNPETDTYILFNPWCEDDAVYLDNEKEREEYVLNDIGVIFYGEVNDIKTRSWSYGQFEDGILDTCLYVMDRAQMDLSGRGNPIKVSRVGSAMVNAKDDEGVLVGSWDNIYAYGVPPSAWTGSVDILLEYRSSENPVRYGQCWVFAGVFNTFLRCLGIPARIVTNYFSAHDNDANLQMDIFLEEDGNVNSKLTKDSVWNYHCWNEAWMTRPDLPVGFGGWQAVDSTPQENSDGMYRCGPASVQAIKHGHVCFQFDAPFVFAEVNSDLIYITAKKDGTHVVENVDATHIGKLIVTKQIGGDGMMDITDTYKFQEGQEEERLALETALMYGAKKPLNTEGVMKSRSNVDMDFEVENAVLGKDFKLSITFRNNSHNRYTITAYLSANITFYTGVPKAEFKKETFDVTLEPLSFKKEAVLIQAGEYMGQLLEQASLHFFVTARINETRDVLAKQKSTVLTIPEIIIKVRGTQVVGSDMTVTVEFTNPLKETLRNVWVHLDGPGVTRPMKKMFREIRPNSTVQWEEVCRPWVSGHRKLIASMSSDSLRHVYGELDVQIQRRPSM
The experiment is described as follows: Inactivation of purified Factor XIIIa (monodansylcadaverine incorporation into dimethylcasein, fluorescence). The experiment is classed as biochemical. As to conditions: for kinact/KI: purified Factor XIIIa, method of Kitz and Wilson, read-out: Second order rate constant for inactivation. The method in brief:
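FXIII activated by human thrombin (10 NIH units/mL, 20 min, 37° C.), thrombin quenched with hirudin. Enzyme then preincubated with inhibitor 5 min at 37° C. without substrate. Residual activity read as monodansylcadaverine (20 μM) incorporation into dimethylcasein, fluorescence λexc 360/λem 500 nm. IC50 from % remaining activity versus log concentration; Kitz-Wilson second-order inactivation constants.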

The target of experiment [2] is T2, endogenous Factor XIII in plasma (Plasma FXIIIa) (Homo sapiens, UniProt P00488).
T2 construct: from tissue; host or cells: citrated plasma (desensitized by heating)
T2 sequence (P00488 39-732 limits assumed): T1 sequence (P00488 39-732 limits assumed)
The experiment is described as follows: Inactivation of endogenous Factor XIII in plasma. Type of experiment: biochemical. Conditions: citrated plasma, thrombin-activated, 5 min at 37° C. How it is done:
Citrated plasma (0.235 mL) was “desensitized” by heating with ethylene glycol monomethyl ether (0.235 mL, 20% solution in water) in a glass test tube at 56° C. for 4 min., as described by Lorand (Lorand, L.; Lockridge, O. M.; Campbell, L. K.; Myhrman, R.; Bruner-Lorand, J. Anal.Biochem. 1971, 44, 221-231). After cooling to 37° C., calcium chloride (20 μL, 0.4 M in 50 mM Tris-HCl pH 7.5) and inhibitor solution in 50% glycerol (59 μL) were added. Bovine thrombin (30 NIH units in 118 μL of 50 mM Tris-HCl pH 7.5 containing 20 mM CaCl2) was added and the mixture was incubated at 37° C. for 5 min.
An assay mixture composed of 0.1 M sodium borate, pH 9.0, 0.3% ethylene glycol monomethyl ether, 32 μM monodansylcadaverine, 10 mM CaCl2 and 0.08% dimethyl casein in a final volume of 1.263 mL was prepared in a spectrofluorometric cell and incubated at 37° C. for a few minutes. To assay the residual enzyme activity, 567 μL of the plasma solution was transferred to the assay mixture. The covalent incorporation of monodansylcadaverine into casein was monitored by an increase in fluorescence at λex=360 nm and λem=500 nm, as previously described (Curtis, C. G.; Lorand, L. Methods Enzymol. 1976, 45, 177-191). To determine uninhibited enzyme activity, inhibitor solution was replaced by 50% glycerol. IC50 values (inhibitor concentration resulting in 50% enzyme inactivation) were determined by plotting the percent of remaining enzyme activity against logarithm of inhibitor concentration.

[3] abbreviates: purified activated FXIII, 50% enzyme inactivation after 5-min incubation with inhibitor at 37° C. in the absence of substrate, read-out: FXIIIa (IC50 in μM).
[4] abbreviates: values without asterisk, purified FXIIIa, 5-min incubation, read-out: FXIIIa IC50 determined by method in Example 16.

Take `O=S(=O)(NCCCCCCNc1nsc2nccn12)c1cccc2ccccc12` [1-naphthyl, N-[6-(imidazo[1,2-d][1,2,4]thiadiazol-3-ylamino)hexyl]naphthalene-1-sulfonamide]: the kinact/KI in experiment [1] is 3300 M⁻¹ s⁻¹. Moreover, the IC50 came out at 0.52 µM in experiment [1] (setting [3]), 0.52 µM in experiment [1] (setting [4]) and 8400 nM in experiment [2].
As for `O=S(=O)(Cc1ccccc1)NCCCCCCNc1nsc2nccn12` [2 / CH2Ph, N-[6-(imidazo[1,2-d][1,2,4]thiadiazol-3-ylamino)hexyl]-1-phenylmethanesulfonamide], the IC50 in experiment [1] (setting [4]) turned out to be 7.8 µM; in experiment [2], 19000 nM.
In the case of `O=S(=O)(NCCCCCCNc1nsc2nccn12)c1ccc(F)cc1F` [2,4-diF-Ph, 2,4-difluoro-N-[6-(imidazo[1,2-d][1,2,4]thiadiazol-3-ylamino)hexyl]benzenesulfonamide], the IC50 in experiment [1] (setting [3]) worked out at 1.4 µM; in experiment [1] (setting [4]) it was 1.4 µM; in experiment [2] it was 6100 nM.
In the case of `O=S(=O)(NCCCCCCNc1nsc2nccn12)c1ccc(OC(F)(F)F)cc1` [4-OCF3-Ph, N-[6-(imidazo[1,2-d][1,2,4]thiadiazol-3-ylamino)hexyl]-4-trifluoromethoxybenzenesulfonamide], the half-inhibitory concentration (IC50) turned out to be 1.6 µM in experiment [1] (setting [4]) and 31000 nM in experiment [2].
On to `O=C(O)CN(CCCCCCNS(=O)(=O)c1ccccc1[N+](=O)[O-])c1nsc2nccn12` [H / CH2CO2H / 2-NO2-Ph, N-imidazo[1,2-d][1,2,4]thiadiazol-3-yl-N-(6-{[(2-nitrophenyl)sulfonyl]amino}hexyl)glycine], for which the kinact/KI in experiment [1] is 4500 M⁻¹ s⁻¹. The IC50 in experiment [1] (setting [3]) and in experiment [1] (setting [4]) was 0.62 µM throughout.
